One test deals with T1, GAL-hERRα (Homo sapiens, UniProt P11474).
T1 construct: expressed in transfected cells; host or cells: 293 FT cells
T1 sequence (P11474 193-421 limits assumed): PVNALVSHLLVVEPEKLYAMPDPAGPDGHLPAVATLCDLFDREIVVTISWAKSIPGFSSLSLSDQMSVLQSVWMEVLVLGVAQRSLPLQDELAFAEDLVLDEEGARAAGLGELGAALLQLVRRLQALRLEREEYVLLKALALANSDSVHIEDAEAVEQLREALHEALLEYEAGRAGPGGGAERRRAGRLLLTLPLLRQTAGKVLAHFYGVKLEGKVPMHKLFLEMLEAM
Nature of the test: GAL4-ERRα ligand binding domain luciferase reporter activation assay in 293 FT cells co-transfected with CMV-PGC-1α. Format: cell-based. As to conditions: in the presence of CMV-PGC-1α, approximately 24 hours, increasing concentrations (FIG. 1). An excerpt:
To test the effect of the compounds on ERR and other nuclear hormone receptors, 293 FT cells were transiently transfected with expression vectors for the receptors along with appropriate reporter constructs according to methods known in the art. Suitable reporter gene constructs are well known to skilled workers in the fields of biochemistry and molecular biology. Other vectors known in the art can be used in the methods of the present invention. GAL4 fusions containing receptor ligand binding domain fragments were constructed by fusing human ERRα, human ERRβ and murine ERRγ ligand binding domain sequences to the C-terminal end of the yeast GAL4 DNA binding domain (amino acids 1-147 accession X85976) to form the expression vectors GAL-hERRα, GAL-L-hERRβ and Gal-mERRγ, respectively. pGAL is a control containing the yeast GAL4 DNA binding domain without receptor sequences. CMV-PGC-1α contains and expressed the PGC-1α coding sequences derived from PGC-1α (accession NM--008904). 293 FT cells for the activation assays were grown in Dulbecco's modified Eagle's medium supplemented with 10% resin charcoal-stripped fetal bovine serum at 37° C. in 5% CO2. One day prior to transfection, cells were plated to 50-80% confluence using phenol red free DMEM-FBS. The cells were transiently transfected by lipofection but other methods of transfection of DNA into cells can be utilized without deviating from the spirit of the invention. Luciferase reporter construct UASgx4-TK-Luc and cytomegalovirus-driven expression vector p-GAL, GAL-hERRα, GAL-L-hERRβ or Gal-mERRγ were added with CMV-PGC-1α. The cells were treated for approximately 24 hours with phenol red free DMEM-FBS containing 0.01% DMSO (control) or 0.01% DMSO with increasing concentrations of DK compounds. […] (FIG. 1).
(A reporter such as luciferase makes a cellular process visible.)

The test system of test [1] is high-fat-diet mice. Nature of the test: Oral glucose tolerance test in high-fat-diet mice. Format: in vivo, C57BL/J6 mice. To be noted: 5 mg/kg/day by gavage for two weeks, fasted 5 h (FIG. 3). The method, then: (§1) Seven weeks old male C57BL/J6 mice were either fed chow diet or a high-fat-diet with 60% calories from lard for 10 weeks. Compounds were administered to animals by gavage for two weeks at different doses. Four groups of animals (n=5) were administered with either vehicle, 5 mg/kg/day rosiglitazone, or 5 mg/kg/day DK45. Animals were fasted for 5 h, and then orally fed glucose. Blood samples were withdrawn at time 0, 15, 30, 60 and 120 min. Blood glucose level was measured by monitor (Accu-chek Advantage, Roche). The changes in blood glucose level were plotted against time and the areas under the curve were calculated for the different groups.

The test system of test [2] is high-fat-diet mice. Nature of the test: Serum free fatty acid, cholesterol and triglyceride levels in high-fat-diet mice. Format: in vivo, C57BL/J6 mice. To be noted: 5 mg/kg/day. The method, then:
as §1
Moreover, DK45 at 5 mg/kg/day reduced serum free fatty acid (FIG. 7), cholesterol (FIG. 8), and triglyceride levels (FIG. 9) of non-fasting treatments.

Test [3] deals with high-fat-diet mice. Nature of the test: Blood insulin level in high-fat-diet mice. Format: in vivo, C57BL/J6 mice. As to conditions: 5 mg/kg/day by gavage, non-fasting (FIG. 6). The method, then:
as §1
(§2) The blood insulin levels of fasting and non-fasting treatments also indicate that DK45 at 5 mg/kg/day reduced the blood insulin levels of non-fasting treatments (FIG. 6).

Test [4] relates to PDK4-promoter reporter gene driven by ERRα. Nature of the test: PDK4-promoter luciferase reporter gene assay driven by ERRα in HeLa cells. Format: cell-based, human. As to conditions: 10 uM, approximately 24 hours (FIG. 2). An excerpt:
(§3) HeLa were transiently transfected with the pGL3-promoter (Promega) derivative pGL3-PGC1α-promoter or PDK4-Promega and expression vector for ERRα. The Renilla-Luciferase pRL-CMV Vector (Promega) was included as a control for transfection efficiency. The full length human ERRα was cloned into the expression vector pCMV. The pGL3-PGC1α-promoter or PDK4-promoter was generated by cloning an insert derived from a PCR reaction using human genomic DNA as template and primers based on the 2.6 kbp upstream sequence of the PGC1α transcriptional start site.
(§4) HeLa cells for the activation assays were grown in Dulbecco's modified Eagle's medium supplemented with 10% fetal bovine serum at 37° C. in 5% CO2. One day prior to transfection, cells were plated to 50-80% confluence using DMEM-FBS. The cells were transiently transfected by lipofection but other methods of transfection of DNA into cells can be utilized without deviating from the spirit of the invention. Luciferase reporter construct pGL3-PGC1α-promoter or PDK4-promoter and cytomegalovirus-driven expression vector pCMV or pCMV-hERRα were added. The cells were treated for approximately 24 hours with DMEM-FBS containing 0.01% DMSO (control) or 0.01% DMSO with 10 uM DK45 compound.

The test system of test [5] is high-fat-diet mice. Nature of the test: Insulin resistance (insulin tolerance) test in high-fat-diet mice. To be noted: 5 mg/kg/day by gavage, fasted 5 h, insulin 0.75 IU/kg (FIG. 5). Format: in vivo, C57BL/J6 mice. The method, then:
as §1
In addition, insullin resistance test was administered. Animals were fasted for 5 h, and then injected insulin (0.75 IU/kg). Blood samples were withdrawn at time 0, 15, 30, 60 and 120 min. Blood glucose level was measured by monitor (Accu-chek Advantage, Roche). The changes in blood glucose level were plotted against time and the areas under the curve were calculated for the different groups.
as §2

Test [6] concerns PGC1α-promoter reporter gene driven by ERRα. Nature of the test: PGC1α-promoter luciferase reporter gene assay driven by ERRα in HeLa cells. Format: cell-based, human. As to conditions: 10 uM, approximately 24 hours (FIG. 2).
Excerpt: as §3, §4

Test [7] has as its system high-fat-diet mice. Nature of the test: Non-fasting blood glucose level in high-fat-diet mice. Format: in vivo, C57BL/J6 mice. As to conditions: 5 mg/kg/day by gavage for two weeks, non-fasting (FIG. 4).

Each structure is given as a SMILES string.

Regarding `COc1ccn2c(=O)cc(-c3ccccc3)nc2c1` [DK36, 8-methoxy-2-phenyl-4H-pyrido[1,2-a]pyrimidin-4-one], the “activity of GAL-hERRα on reporter construct UASgx4-TK-Luc” value (“activity of GAL-hERRα” for short) on GAL-hERRα is on record as “dose-dependently enhances”.
`CCc1ccn2c(=O)cc(-c3ccccc3)nc2c1` [DK45, 8-ethyl-2-phenyl-4H-pyrido[1,2-a]pyrimidin-4-one]: the “area under the curve of the oral glucose tolerance test” value in the test with high-fat-diet mice [1] is reported as “reduced”. At GAL-hERRα, the “activity of GAL-hERRα” value is given as “dose-dependently enhances”. Further, in the test on high-fat-diet mice [2] (non-fasting (FIG. 7)), the “serum free fatty acid” value was “reduced”. Also, in the test with high-fat-diet mice [2] (non-fasting (FIG. 8)), the serum cholesterol entry is on record as “reduced”. Further, in the test with high-fat-diet mice [2] (non-fasting (FIG. 9)), the serum triglyceride levels result was “reduced”. Moreover, the “blood insulin levels of non-fasting treatments” value with high-fat-diet mice [3] was “reduced”. Further, the “PDK4-promoter reporter gene driven by ERRα” value in test [4] is given as “enhancement”. Further, the “area under the curve of the insulin resistance test” value in the test on high-fat-diet mice [5] is on record as “reduced”. Further, the “PGC1α-promoter reporter gene driven by ERRα” value in test [6] was “enhancement”. The “blood glucose levels, non-fasting” value in the test with high-fat-diet mice [7] is given as “reduced”.
`CC(C)Oc1ccn2c(=O)cc(-c3ccccc3)nc2c1` [DK41, 8-isopropoxy-2-phenyl-4H-pyrido[1,2-a]pyrimidin-4-one]: the “activity of GAL-hERRα” value at GAL-hERRα is recorded as “dose-dependently enhances”.
